Results from patent US20210255193A1, “LYSINE REACTIVE PROBES AND USES THEREOF” (The Scripps Research Institute, priority 2017, published 2021).

Legend:
[1] = target: T1, HDHD3 (Homo sapiens, UniProt Q9BSH5); assay: direct labeling of recombinantly expressed proteins by gel-based ABPP (WT vs lysine mutant); format: binding; details: HDHD3 K15, KR mutant; 10 μM probe, 1 h
T1 construct: Flag; expressed in transfected cells; host or cells: HEK 293T
T1 sequence (Q9BSH5 1-251): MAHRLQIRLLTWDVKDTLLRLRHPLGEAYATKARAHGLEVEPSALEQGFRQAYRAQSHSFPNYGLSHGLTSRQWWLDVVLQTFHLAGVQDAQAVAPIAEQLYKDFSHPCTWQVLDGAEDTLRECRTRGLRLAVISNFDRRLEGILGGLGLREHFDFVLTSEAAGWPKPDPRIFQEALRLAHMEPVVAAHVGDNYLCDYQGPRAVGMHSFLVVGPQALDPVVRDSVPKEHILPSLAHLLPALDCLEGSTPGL
Excerpt: (§1) Subcloning and mutagenesis. Unless noted below, genes were amplified from cDNA prepared from low passage HEK 293T cells using the Ribozol RNA extraction reagent (Amresco) and the iScript Reverse Transcription Supermix kit (Bio-Rad). For the following proteins cDNA clones were used for amplification instead: PFKP (5180268, Dharmacon), HK1 (BC008730, transomic), SIN3A (BC137098, transomic), G6PD (BC000337, transomic) and TGIF1 (BC031268, transomic). Mouse CARM1 in pFLAG-CMV-6c was a kind gift from the Mowen lab (TSRI). NUDT2 was obtained as synthesized gene (IDT). DNA was amplified with custom forward and reverse primers using phusion polymerase (NEB, M0530S), digested with the indicated restriction enzyme and ligated into pFLAG-CMV-6c or pRK5 with the appropriate affinity tag. Lysine mutants were generated using QuikChange site-directed mutagenesis using Phusion® High-Fidelity DNA Polymerase and primers containing the desired mutations and their respective complements. The cloning of TTR and its K35A mutant has been described in Choi et al., “Chemoselective small molecules that covalently modify one lysine in a non-enzyme protein in plasma,” Nat. Chem. Biol. 6, 133-139 (2010). TTR was expressed in E. coli and purified as described. For gel-based experiments 1 μM TTR was added into 1 mg ml^−1 soluble MDA-MB-231 lysate.
(§2) Recombinant expression of proteins by transient transfection. HEK 293T cells were grown to 50% confluency in 10 ml DMEM supplemented with 10% fetal bovine serum (FBS), penicillin, streptomycin and glutamine in 10 cm tissue culture dishes. 3 μg of DNA was diluted in 500 μL DMEM and 30 μL of PEI (MW 40,000, 1 mg ml^−1, Polysciences) were added. The mixture was incubated at room temperature for 30 min and added dropwise to the cells. Cells were grown for 48 h at 37° C. with 5% CO2. Cells were washed with cold PBS, scraped with cold PBS and cell pellets were isolated by centrifugation (1,400 g, 3 min, 4° C.), and stored at −80° C. until use. Cell pellets were resuspended in PBS, lysed by sonication and fractionated (100,000 g, 45 min) to yield soluble and membrane fractions. The soluble fraction was adjusted to a final protein concentration of 1 mg ml^−1 for gel-based ABPP experiments.
(§3) Direct labeling of recombinantly expressed proteins by gel-based ABPP. 50 μL of soluble HEK 293T proteome (1 mg ml^−1) expressing the respective protein (WT or KR mutant) or transfected with an empty vector were treated with 10 μM of the indicated probe for 1 h at room temperature. The samples were analyzed as described in the previous section. For quantification of relative labeling of the different protein variants, the intensity of labeling was determined by quantifying the integrated optical intensity of the bands using ImageLab 5.2.1 software (BioRad).

[2] = target: T2, PFKP (Homo sapiens, UniProt Q01813); assay: as above; format: binding; details: PFKP K688, KR mutant; 10 μM probe, 1 h
T2 construct: Flag; expressed in transfected cells; host or cells: HEK 293T, transient transfection, soluble lysate; cDNA clone 5180268 (Dharmacon)
T2 sequence (Q01813 1-784): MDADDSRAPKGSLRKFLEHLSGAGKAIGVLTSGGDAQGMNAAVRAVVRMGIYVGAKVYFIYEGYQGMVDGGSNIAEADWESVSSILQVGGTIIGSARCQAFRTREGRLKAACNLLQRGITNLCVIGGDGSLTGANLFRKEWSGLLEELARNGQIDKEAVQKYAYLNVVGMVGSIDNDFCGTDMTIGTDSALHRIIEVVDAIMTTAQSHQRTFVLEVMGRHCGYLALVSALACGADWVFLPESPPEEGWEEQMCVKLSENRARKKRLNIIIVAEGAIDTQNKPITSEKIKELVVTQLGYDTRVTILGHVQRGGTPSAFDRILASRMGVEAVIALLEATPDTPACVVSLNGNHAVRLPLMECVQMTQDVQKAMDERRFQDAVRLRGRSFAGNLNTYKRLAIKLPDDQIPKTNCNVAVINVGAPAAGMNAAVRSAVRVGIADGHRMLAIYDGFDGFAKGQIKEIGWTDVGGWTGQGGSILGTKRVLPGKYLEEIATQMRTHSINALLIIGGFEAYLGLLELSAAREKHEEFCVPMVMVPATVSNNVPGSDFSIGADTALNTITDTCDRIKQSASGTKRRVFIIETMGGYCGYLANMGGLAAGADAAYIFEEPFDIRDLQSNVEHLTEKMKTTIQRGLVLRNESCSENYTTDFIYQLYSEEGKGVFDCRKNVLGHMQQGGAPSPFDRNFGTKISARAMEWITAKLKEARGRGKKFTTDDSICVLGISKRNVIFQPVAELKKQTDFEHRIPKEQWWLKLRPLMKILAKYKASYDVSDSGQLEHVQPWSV
Excerpt: as §1, §2, §3

Compound: Cc1cc(C)n2c1C=C1C=CC(CCC(=O)Oc3c(F)c(F)c(S(=O)(=O)[O-])c(F)c3F)=[N+]1[B-]2(F)F.[Na+] [probe 18, reference compound]
- labeling of WT vs mutant protein by probe [1]: HD (the WT labeled more than the mutant (>4x difference quantified))
- labeling of WT vs mutant protein by probe [2]: PD (the WT labeled more than the mutant (>2x difference quantified))

Compound: C#Cc1ccc(C(=O)Oc2ccccc2[N+](=O)[O-])cc1 [probe 10, 2-Nitrophenyl 4-ethynylbenzoate]
- labeling of WT vs mutant protein by probe [1]: HD (the WT labeled more than the mutant (>4x difference quantified))
- labeling of WT vs mutant protein by probe [2]: HD (the WT labeled more than the mutant (>4x difference quantified))

Compound: C#Cc1ccc(C(=O)Oc2c(F)c(F)cc(F)c2F)cc1 [probe 12, 2,3,5,6-Tetrafluorophenyl 4-ethynylbenzoate]
- labeling of WT vs mutant protein by probe [1]: HD (the WT labeled more than the mutant (>4x difference quantified))
- labeling of WT vs mutant protein by probe [2]: HD (the WT labeled more than the mutant (>4x difference quantified))

Compound: C#CCCC(=O)Oc1c(F)c(F)c(S(=O)(=O)[O-])c(F)c1F.[Na+] [probe 1, reference compound]
- labeling of WT vs mutant protein by probe [1]: HD (the WT labeled more than the mutant (>4x difference quantified))
- labeling of WT vs mutant protein by probe [2]: HD (the WT labeled more than the mutant (>4x difference quantified))

Compound: C#CCCC(=O)Oc1c(F)c(F)c(F)c(F)c1F [probe 6, Pentafluorophenyl 4-pentynoate]
- labeling of WT vs mutant protein by probe [1]: HD (the WT labeled more than the mutant (>4x difference quantified))
- labeling of WT vs mutant protein by probe [2]: HD (the WT labeled more than the mutant (>4x difference quantified))

Compound: C#Cc1ccc(C(=O)Oc2c(F)c(F)c(F)c(F)c2F)cc1 [probe 13, Pentafluorophenyl 4-ethynylbenzoate]
- labeling of WT vs mutant protein by probe [1]: HD (the WT labeled more than the mutant (>4x difference quantified))
- labeling of WT vs mutant protein by probe [2]: HD (the WT labeled more than the mutant (>4x difference quantified))
